Assays:
A549 cells [1] = details: A549, 5 µM, 24 hours
HDAC1 = HDAC1 (Homo sapiens, UniProt Q13547); details: HTPB 1 or 2 µM; class I HDAC from A549 cells
HDAC4 = HDAC4 (Homo sapiens, UniProt P56524); details: HTPB 1 or 2 µM; class II HDAC from A549 cells
[2] = test system: IMR90 normal lung cell line; details: 0.5–10 µM, 48 hours, MTT
HDAC11 = HDAC11 (Homo sapiens, UniProt Q96DB2); details: HTPB 1 or 2 µM; class IV HDAC from A549 cells
HDAC8 = HDAC8 (Homo sapiens, UniProt Q9BY41); details: HTPB 1 or 2 µM; class I HDAC from A549 cells
[3] = test system: 4T1-luc breast cancer cells; details: 1.92 µM, 48 hours
RhoA = details: A549 and H1299 cells, 2.5 µM, 48 hours
HDAC6 = HDAC6 (Homo sapiens, UniProt Q9UBN7); details: HTPB 1 or 2 µM; class II HDAC from A549 cells
[4] = test system: acetylation of histone H3, histone H4 and p53; details: single dose 50 mg/kg intraperitoneal, after 2 hours
[5] = test system: A549 lung tumor xenograft; test: In vivo anti-tumor growth assay; details: for tumor growth inhibition compared with DMSO control / tumor growth inhibition: 3 days/week for three weeks; for tumor growth inhibition: oral
[6] = 25–100 mg/kg intraperitoneal or oral, three weeks
[7] = test system: acetylation of histone H3, histone H4, p53 and tubulin; details: time- and dose-dependent, Western blot
in vitro [8] = details: human, A549 cells
[9] = test system: lung metastasis of 4T1-luc cells; details: cells pre-treated with 1.92 µM for 48 hours, injected via tail vein, imaged 13 days
[10] = test system: 4T1-luc breast cancer cells; details: 1.92 µM, 48 hours; remark: listed apart in the source
HDAC = details: Fig. S5, compared to MS275
MMP-2 = details: A549 and H1299 cells, 2.5 µM, 48 hours
A549 cells [11] = test: cells; details: Homo sapiens, A549, 48 h, read-out: IC50 (cytotoxicity)
H1299 cells [12] = details: H1299, 5 µM, 24 hours
MMP-9 = details: A549 and H1299 cells, 2.5 µM, 48 hours
H1299 cells [13] = test: cells; details: Homo sapiens, NCI-H1299, 48 h, read-out: IC50 (cytotoxicity)
in vitro [14] = details: human, H1299 cells

Sequence of HDAC1 (Q13547 whole entry): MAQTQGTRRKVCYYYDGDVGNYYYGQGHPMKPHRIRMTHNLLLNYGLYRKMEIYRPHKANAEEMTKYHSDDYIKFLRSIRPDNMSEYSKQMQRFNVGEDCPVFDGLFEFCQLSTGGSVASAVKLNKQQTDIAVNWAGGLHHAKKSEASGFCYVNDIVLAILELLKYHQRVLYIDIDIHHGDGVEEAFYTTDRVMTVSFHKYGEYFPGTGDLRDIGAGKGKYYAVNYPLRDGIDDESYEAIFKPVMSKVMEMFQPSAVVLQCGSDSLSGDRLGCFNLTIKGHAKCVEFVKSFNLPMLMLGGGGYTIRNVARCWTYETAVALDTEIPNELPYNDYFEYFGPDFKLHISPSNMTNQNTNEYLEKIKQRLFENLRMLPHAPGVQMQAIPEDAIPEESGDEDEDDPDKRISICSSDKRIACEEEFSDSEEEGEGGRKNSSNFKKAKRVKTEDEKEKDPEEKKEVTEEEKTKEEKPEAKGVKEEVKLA
Sequence of HDAC8 (Q9BY41 whole entry): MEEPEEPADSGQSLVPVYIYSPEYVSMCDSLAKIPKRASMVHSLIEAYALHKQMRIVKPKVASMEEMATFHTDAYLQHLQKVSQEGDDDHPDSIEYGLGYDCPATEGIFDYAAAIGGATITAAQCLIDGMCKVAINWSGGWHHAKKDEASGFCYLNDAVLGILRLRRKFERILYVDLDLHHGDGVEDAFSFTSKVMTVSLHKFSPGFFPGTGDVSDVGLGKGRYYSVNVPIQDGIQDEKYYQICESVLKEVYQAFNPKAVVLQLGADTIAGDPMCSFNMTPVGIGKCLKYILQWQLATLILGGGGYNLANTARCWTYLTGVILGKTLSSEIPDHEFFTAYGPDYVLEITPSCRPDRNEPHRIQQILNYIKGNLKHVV
Sequence of HDAC11 (Q96DB2 whole entry): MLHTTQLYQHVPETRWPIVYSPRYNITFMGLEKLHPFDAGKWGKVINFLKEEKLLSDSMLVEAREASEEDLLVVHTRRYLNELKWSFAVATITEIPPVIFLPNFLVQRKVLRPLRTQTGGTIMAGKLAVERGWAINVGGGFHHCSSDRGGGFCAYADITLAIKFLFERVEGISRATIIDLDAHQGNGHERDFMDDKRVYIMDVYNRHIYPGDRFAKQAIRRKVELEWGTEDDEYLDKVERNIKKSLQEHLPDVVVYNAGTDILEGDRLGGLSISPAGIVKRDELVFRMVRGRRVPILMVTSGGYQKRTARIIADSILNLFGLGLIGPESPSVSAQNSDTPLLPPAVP
Sequence of HDAC6 (Q9UBN7 whole entry): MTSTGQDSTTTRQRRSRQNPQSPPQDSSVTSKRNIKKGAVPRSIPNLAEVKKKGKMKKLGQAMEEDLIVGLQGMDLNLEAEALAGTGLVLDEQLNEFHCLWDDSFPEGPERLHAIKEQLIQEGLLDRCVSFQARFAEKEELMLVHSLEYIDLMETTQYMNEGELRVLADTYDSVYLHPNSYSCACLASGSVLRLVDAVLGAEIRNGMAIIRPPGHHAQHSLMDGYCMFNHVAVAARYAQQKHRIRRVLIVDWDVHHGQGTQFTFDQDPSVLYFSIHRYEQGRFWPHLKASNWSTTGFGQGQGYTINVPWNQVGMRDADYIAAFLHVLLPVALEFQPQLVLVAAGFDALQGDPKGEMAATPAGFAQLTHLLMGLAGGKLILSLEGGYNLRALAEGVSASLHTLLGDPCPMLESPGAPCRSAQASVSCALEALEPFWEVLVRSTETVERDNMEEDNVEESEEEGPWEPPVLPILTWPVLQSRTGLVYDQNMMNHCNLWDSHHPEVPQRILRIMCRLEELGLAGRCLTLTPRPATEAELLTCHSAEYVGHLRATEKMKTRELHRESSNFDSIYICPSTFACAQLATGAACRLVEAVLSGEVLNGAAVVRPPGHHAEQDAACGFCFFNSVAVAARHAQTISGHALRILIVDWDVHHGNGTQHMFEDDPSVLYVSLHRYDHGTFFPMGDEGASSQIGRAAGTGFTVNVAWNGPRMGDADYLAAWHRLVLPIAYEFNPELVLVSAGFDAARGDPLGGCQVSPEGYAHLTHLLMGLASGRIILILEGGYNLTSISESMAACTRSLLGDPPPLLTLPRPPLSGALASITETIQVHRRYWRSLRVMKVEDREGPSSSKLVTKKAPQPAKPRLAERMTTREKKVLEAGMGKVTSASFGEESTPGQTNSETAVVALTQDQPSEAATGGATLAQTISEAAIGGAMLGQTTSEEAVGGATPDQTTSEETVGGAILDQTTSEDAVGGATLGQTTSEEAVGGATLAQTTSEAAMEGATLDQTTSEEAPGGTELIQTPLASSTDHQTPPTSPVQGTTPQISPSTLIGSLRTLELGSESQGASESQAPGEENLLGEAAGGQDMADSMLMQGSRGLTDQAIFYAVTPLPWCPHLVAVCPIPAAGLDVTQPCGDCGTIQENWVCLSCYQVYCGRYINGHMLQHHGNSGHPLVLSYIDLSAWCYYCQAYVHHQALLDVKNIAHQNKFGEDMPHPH

## O=C(CCCc1ccccc1)Nc1ccc(C(=O)NO)cc1 [HTPB, N-Hydroxy-4-(4-phenylbutyryl-amino)benzamide]
A549 cells [1]
  caspase-3 activity: significantly stimulated
  caspase-9 activity: significantly stimulated
HDAC1
  deacetylase activity of HDAC1: significantly inhibited
HDAC4
  deacetylase activity of HDAC4: significantly inhibited
[2]
  cytotoxicity towards IMR90 normal lung cell line: without showing apparent cytotoxicity
HDAC11
  deacetylase activity of HDAC11: significantly inhibited
HDAC8
  deacetylase activity of HDAC8: significantly inhibited
[3]
  transwell migration capacities compared to the un-treated control: 50%
RhoA
  RhoA activity (RhoA-GTP): markedly decreased
HDAC6
  deacetylase activity of HDAC6: significantly inhibited
[4]
  acetylation of histone H3, histone H4 and p53 in tumor xenograft: profoundly increased
[5]; intraperitoneal, 25 mg/kg
  tumor growth inhibition compared with DMSO control: 80%
[5]; intraperitoneal, 50 mg/kg
  tumor growth inhibition compared with DMSO control: 94%
[5]; intraperitoneal, tumor weight
  anti-tumor growth effect, times more potent than SAHA as assessed by tumor weight: 2–4 times
[5]; 50 mg/kg
  tumor growth inhibition: 39%
[5]; 100 mg/kg
  tumor growth inhibition: 79%
[6]
  effect on body weight: did not adversely affect body weight
  toxicity by hematological biochemistry examinations (GOT, GPT, albumin, creatinine): no detectable toxicity
[7]
  acetylation of histone H3, histone H4, p53 and tubulin: induced acetylation
In vitro [8]
  viability at 48 h, 0.5 µM: 87%
  viability at 48 h, 1 µM: 80%
[9]
  lung metastasis of 4T1-luc cells: significantly delayed lung metastasis
[10]
  cell viability of 4T1-luc cells: did not change cell viability
HDAC
  in vitro HDAC activity compared to MS275: significant inhibition
MMP-2
  MMP-2 enzyme activity: significantly decreased
A549 cells [11]
  IC50: 1590 nM
H1299 cells [12]
  caspase-3 activity: significantly stimulated
  caspase-9 activity: significantly stimulated
MMP-9
  MMP-9 enzyme activity: significantly decreased
H1299 cells [13]
  IC50: 2190 nM
In vitro [14]
  viability at 48 h, 0.5 µM: 94%
  viability at 48 h, 1 µM: 85%

— paper PMC3261198, “Mitochondrial Apoptosis and FAK Signaling Disruption by a Novel Histone Deacetylase Inhibitor, HTPB, in Antitumor and Antimetastatic Mouse Models” (PLoS ONE, 2012)
